For one molecule, IC50 results are on record in patent US6869964B2, “Heterocyclicsulfonamide hepatitis C virus inhibitors” (Bristol-Myers Squibb Company, priority 2002, dated 2005).

The target of experiment [1] is T1, HCV NS3/4A protease complex (J4L6S strain) (Hepatitis C virus genotype 1b, UniProt O92972, C1454S/C1711G).
T1 construct: HCV NS3/4A protease complex (amino acids 1027 to 1711); inferred from pET21b vector and Ni-NTA purification; made in house; host or cells: Escherichia coli BL21 (DE3), pET21b
The experiment in a line: Recombinant HCV NS3/4A protease complex FRET peptide assay, J4L6S strain. The class given is biochemical, HCV genotype 1b. The source says: Recombinant HCV NS3/4A Protease Complex FRET Peptide Assay
The purpose of this in vitro assay was to measure the inhibition of HCV NS3 protease complexes, derived from the BMS, H77C or J4l6S strains, as described below, by compounds of the present invention. This assay provides an indication of how effective compounds of the present invention would be in inhibiting HCV proteolytic activity.
Serum from an HCV-infected patient was obtained from Dr. T. Wright, San Francisco Hospital. An engineered full-length cDNA template of the HCV genome (BMS strain) was constructed from DNA fragments obtained by reverse transcription-PCR (RT-PCR) of serum RNA and using primers selected on the basis of homology between other genotype la strains. From the determination of the entire genome sequence, a genotype la was assigned to the HCV isolate according to the classification of Simmonds et al. (See P Simmonds, K A Rose, S Graham, S W Chan, F McOmish, B C Dow, E A Follett, P L Yap and H Marsden, J. Clin. Microbiol., 31(6), 1493-1503 (1993)). […]

Experiment [2] relates to human pancreatic chymotrypsin. The experiment in a line: Specificity assay, human pancreatic chymotrypsin. The experiment is classed as biochemical. The conditions noted are these: 2 hr enzyme-inhibitor pre-incubation. The procedure:
The specificities of compounds of the present invention were determined against a variety of serine proteases: human sputum elastase (HS), porcine pancreatic elastase (PPE) and human pancreatic chymotrypsin and one cysteine protease: human liver cathepsin B. In all cases a 96-well plate format protocol using colorimetric p-nitroaniline (pNA) substrate specific for each enzyme was used as described previously (CT 2633 application) with some modifications to the serine protease assays.
Each assay included a 2 hr enzyme-inhibitor pre-incubation at RT followed by addition of substrate and hydrolysis to ˜30% conversion as measured on a Spectramax Pro microplate reader. Compound concentrations varied from 100 to 0.4 μM depending on their potency.
The final conditions and protocol for the serine protease assays were: • 50 mM Tris(hydroxymethyl)aminomethane hydrochloride (Tris-HCl) pH8, • 0.5M Sodium Sulfate (Na2SO4), 50 mM NaCl, 0.1 mM EDTA, 3% DMSO, • 0.01% Tween-20 with: 133 μM succ-AAA-pNA and 20 nM HS or 8 nM PPE; 100 μM succ-AAPF-pNA and 250 pM Chymotrypsin.
The percentage of inhibition was calculated using the formula: [1−((UVinh−UVblank)/(UVctl−UVblank))]×100
A non-linear curve fit was applied to the inhibition-concentration data, and the 50% effective concentration (IC50) was calculated by the use of Excel Xl-fit software.

The structures appear in SMILES notation. Bounds are passed on as bounds.

T1 sequence (O92972 1658-1711, stated change not applied): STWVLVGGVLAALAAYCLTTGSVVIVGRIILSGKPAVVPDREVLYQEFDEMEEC
T1 sequence (O92972 1027-1711, looked up, stated change not applied): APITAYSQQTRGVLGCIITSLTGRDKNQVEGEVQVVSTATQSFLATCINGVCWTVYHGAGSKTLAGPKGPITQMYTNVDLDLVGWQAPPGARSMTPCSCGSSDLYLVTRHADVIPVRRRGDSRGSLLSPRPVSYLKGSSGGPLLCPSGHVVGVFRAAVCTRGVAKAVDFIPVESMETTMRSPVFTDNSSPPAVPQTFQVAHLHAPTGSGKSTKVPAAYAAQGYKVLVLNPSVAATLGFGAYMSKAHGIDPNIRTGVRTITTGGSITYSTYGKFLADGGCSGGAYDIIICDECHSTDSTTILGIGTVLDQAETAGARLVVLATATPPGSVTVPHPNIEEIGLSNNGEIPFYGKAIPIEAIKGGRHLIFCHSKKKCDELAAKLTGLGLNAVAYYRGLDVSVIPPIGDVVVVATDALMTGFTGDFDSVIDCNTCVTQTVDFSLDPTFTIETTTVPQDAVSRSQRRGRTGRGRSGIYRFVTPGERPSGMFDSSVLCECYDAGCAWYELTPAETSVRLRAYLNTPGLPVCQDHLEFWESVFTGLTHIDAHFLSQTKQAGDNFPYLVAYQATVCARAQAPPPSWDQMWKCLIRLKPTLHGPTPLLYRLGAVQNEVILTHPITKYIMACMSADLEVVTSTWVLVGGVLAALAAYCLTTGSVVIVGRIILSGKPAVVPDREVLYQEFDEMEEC

In the case of `C=CC1C[C@]1(NC(=O)[C@@H]1C[C@@H](Oc2cc(-c3ccccc3)nc3cc(OC)ccc23)CN1C(=O)[C@@H](NC(=O)OC(C)(C)C)C(C)(C)C)C(=O)NS(=O)(=O)c1cccs1` (stereo in doubt) [Compound 1, (1-{4-(7-Methoxy-2-phenylquinolin-4-yloxy)-2-[1-(thiophene-2-sulfonylaminocarbonyl)-2-vinyl-cyclopropylcarbamoyl]-pyrrolidine-1-carbonyl}-2,2-dimethylpropyl)carbamic acid tert-butyl ester], the IC50 in experiment [1] is 1.6 nM; in experiment [2], greater than 50000 nM.

In general, IC50 refers to the concentration that gives 50% inhibition.
